# Data from patent US9771370B2, “Compounds for the inhibition of indoleamine-2,3-dioxygenase” (Merck Patent GmbH, priority 2014, dated 2017).
# Molecular target: Recombinant human IDO (Homo sapiens, UniProt P14902)
# Test: Bridge-IT tryptophan fluorescence assay of human IDO-1 inhibition
# Type: biochemical
# Details: recombinant human IDO 7.5 nM, L-tryptophan
# Summary of the method: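 One variant ran L-Trp at 100 μM for 90 min at 37 °C. The other pre-incubated compound for 30 min at 25 °C, then ran 50 μM L-Trp for 60 min at 25 °C.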
# Chain of Recombinant human IDO (P14902 whole entry): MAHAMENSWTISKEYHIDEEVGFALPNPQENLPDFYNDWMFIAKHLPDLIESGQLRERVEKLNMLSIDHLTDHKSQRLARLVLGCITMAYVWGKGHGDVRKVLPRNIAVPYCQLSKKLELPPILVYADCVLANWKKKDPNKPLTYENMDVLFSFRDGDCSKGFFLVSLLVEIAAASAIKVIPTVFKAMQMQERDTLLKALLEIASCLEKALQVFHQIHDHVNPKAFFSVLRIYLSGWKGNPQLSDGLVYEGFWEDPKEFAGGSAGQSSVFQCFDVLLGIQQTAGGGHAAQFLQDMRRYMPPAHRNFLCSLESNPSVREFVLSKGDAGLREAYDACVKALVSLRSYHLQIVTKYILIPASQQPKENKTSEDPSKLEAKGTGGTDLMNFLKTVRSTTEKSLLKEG
row,Compound,IC50
1,"Fc1ccc2c(n1)C(CCC1(F)CCCCC1)n1cncc1-2 (stereo not shown) [Compound 17, 10-fluoro-7-[2-(1-fluorocyclohexyl)ethyl]-4,6,9-triazatricyclo[6.4.0.0^[2,6]]dodeca-1(8),2,4,9,11-pentaene]",100 to 1000 nM
2,"CC(C)(O)C1CCC(F)(CCC2c3c(F)cccc3-c3cncn32)CC1 (mixture of isomers) [Compound 86b, 2-[4-fluoro-4-(2-[6-fluoro-5H-imidazo[4,3-a]isoindol-5-yl]ethyl)cyclohexyl]propan-2-ol]",< 100 nM
3,"OC1CCC(F)(CCC2c3ncccc3-c3cncn32)CC1 (mixture of isomers) [Compound 7a, 4-fluoro-4-(2-{4,6,9-triazatricyclo[6.4.0.0^[2,6]]dodeca-1(8),2,4,9,11-pentaen-7-yl}ethyl)cyclohexan-1-ol]",> 1000 nM
4,"OC1(C2CCC(F)(CCC3c4c(Cl)cccc4-c4cncn43)CC2)CC1 (stereo not shown) [Compound 106b, 1-[4-(2-[6-chloro-5H-imidazo[4,3-a]isoindol-5-yl]ethyl)-4-fluorocyclohexyl]cyclopropan-1-ol]",100 to 1000 nM
5,"OC1CCC(C(F)(F)CC2c3ccccc3-c3cncn32)CC1 (mixture of isomers) [Compound 74a, 4-(1,1-difluoro-2-[5H-imidazo[4,3-a]isoindol-5-yl]ethyl)cyclohexan-1-ol]",< 100 nM
6,"Fc1ccc(F)c2c1-c1cncn1C2CCC1(F)CCCCC1 (single isomer, unassigned) [Compound 37a, 6,9-difluoro-5-(2-(1-fluorocyclohexyl)ethyl)-5H-imidazo[5,1-a]isoindole]",> 1000 nM
7,"Fc1cccc2c1C(CC(F)C1CCCCC1)n1cncc1-2 (single isomer, unassigned) [Compound 98b, 5-[2-cyclohexyl-2-fluoroethyl]-6-fluoro-5H-imidazo[4,3-a]isoindole]",< 100 nM
8,"NC(=O)C1CCC(C(O)CC2c3ncccc3-c3cncn32)CC1 (stereo not shown) [Compound 63a, 4-[1-hydroxy-2-[4,6,9-triazatricyclo[6.4.0.0^[2,6]]dodeca-1(8),2,4,9,11-pentaen-7-yl]ethyl]cyclohexane-1-carboxamide]",> 1000 nM
9,"OC1CCC(C(F)(F)CC2c3c(F)cccc3-c3cncn32)CC1 (mixture of isomers) [Compound 75b, 4-(1,1-difluoro-2-[6-fluoro-5H-imidazo[4,3-a]isoindol-5-yl]ethyl)cyclohexan-1-ol]",100 to 1000 nM
10,"CC1(C)CCC(F)(CCC2c3ncccc3-c3cncn32)CC1 (single isomer, unassigned) [Compound 48b, 7-[2-(1-fluoro-4,4-dimethylcyclohexyl)ethyl]-4,6,9-triazatricyclo[6.4.0.0^[2,6]]dodeca-1(8),2,4,9,11-pentaene]",> 1000 nM
11,"CN(C)C(=O)C1CCC(F)(CCC2c3c(F)cccc3-c3cncn32)CC1 (mixture of isomers) [Compound 111a, 4-fluoro-4-(2-[6-fluoro-5H-imidazo[4,3-a]isoindol-5-yl]ethyl)-N,N-dimethylcyclohexane-1-carboxamide]",< 100 nM
12,"FC1(CCC2c3cnccc3-c3cncn32)CCCCC1 (single isomer, unassigned) [Compound 10b, 7-[2-(1-fluorocyclohexyl)ethyl]-4,6,10-triazatricyclo[6.4.0.0^[2,6]]dodeca-1(8),2,4,9,11-pentaene]",> 1000 nM
13,"Fc1ccnc2c1-c1cncn1C2CCC1(F)CCCCC1 (single isomer, unassigned) [Compound 102a, 12-fluoro-7-[2-(1-fluorocyclohexyl)ethyl]-4,6,9-triazatricyclo[6.4.0.0^[2,6]]dodeca-1(8),2,4,9,11-pentaene]",> 1000 nM
14,"NS(=O)(=O)C1CCC(F)(CCC2c3ccccc3-c3cncn32)CC1 (single isomer, unassigned) [Compound 121a, 4-fluoro-4-[2-[5H-imidazo[4,3-a]isoindol-5-yl]ethyl]cyclohexane-1-sulfonamide]",< 100 nM
15,"Fc1cccc2c1C(CC(F)(F)C1CCCCC1)n1cncc1-2 (racemic) [Compound 65, 5-(2-cyclohexyl-2,2-difluoroethyl)-6-fluoro-5H-imidazo[4,3-a]isoindole]",100 to 1000 nM
16,"OCC1CCC(F)(CCC2c3c(F)cccc3-c3cncn32)CC1 (single isomer, unassigned) [Compound 84a, [4-fluoro-4-[2-[6-fluoro-5H-imidazo[4,3-a]isoindol-5-yl]ethyl]cyclohexyl]methanol]",> 1000 nM
17,"COc1ccc2c(n1)C(CC(N)C1CCC(C)(C)CC1)n1cncc1-2 (single isomer, unassigned) [Compound 119a, 1-(4,4-dimethylcyclohexyl)-2-[10-methoxy-4,6,9-triazatricyclo[6.4.0.0^[2,6]]dodeca-1(8),2,4,9,11-pentaen-7-yl]ethan-1-amine]",> 1000 nM

row,Compound,IC50
1,"FC(F)(CC1c2ccccc2-c2cncn21)C1CCCCC1 (racemic) [Compound 64, 5-(2-cyclohexyl-2,2-difluoroethyl)-5H-imidazo[4,3-a]isoindole]",100 to 1000 nM
2,"OCC1CCC(F)(CCC2c3c(F)cccc3-c3cncn32)CC1 (single isomer, unassigned) [Compound 84b, [4-fluoro-4-[2-[6-fluoro-5H-imidazo[4,3-a]isoindol-5-yl]ethyl]cyclohexyl]methanol]",> 1000 nM
3,"COc1ccc2c(n1)C(CC(N)C1CCC(F)(F)CC1)n1cncc1-2 (single isomer, unassigned) [Compound 120a, 1-(4,4-difluorocyclohexyl)-2-[10-methoxy-4,6,9-triazatricyclo[6.4.0.0^[2,6]]dodeca-1(8),2,4,9,11-pentaen-7-yl]ethan-1-amine]",> 1000 nM
4,"OC(CC1c2nc(OC3CC3)ccc2-c2cncn21)C1CCC(F)(F)CC1 (single isomer, unassigned) [Compound 69a, 2-[10-cyclopropoxy-4,6,9-triazatricyclo[6.4.0.0^[2,6]]dodeca-1(8),2,4,9,11-pentaen-7-yl]-1-(4,4-difluorocyclohexyl)ethan-1-ol]",100 to 1000 nM
5,"OC(CC1c2nc(OC3CC3)ccc2-c2cncn21)C1CCC(F)(F)CC1 (single isomer, unassigned) [Compound 69c, 2-[10-cyclopropoxy-4,6,9-triazatricyclo[6.4.0.0^[2,6]]dodeca-1(8),2,4,9,11-pentaen-7-yl]-1-(4,4-difluorocyclohexyl)ethan-1-ol]",> 1000 nM
6,"Fc1ccnc2c1-c1cncn1C2CCC1(F)CCCCC1 (single isomer, unassigned) [Compound 102b, 12-fluoro-7-[2-(1-fluorocyclohexyl)ethyl]-4,6,9-triazatricyclo[6.4.0.0^[2,6]]dodeca-1(8),2,4,9,11-pentaene]",> 1000 nM
7,"OC(CC1c2nc(Cl)ccc2-c2cncn21)C1CCC(F)(F)CC1 (single isomer, unassigned) [Compound 52c, 2-[10-chloro-4,6,9-triazatricyclo[6.4.0.0^[2,6]]dodeca-1(8),2,4,9,11-pentaen-7-yl]-1-(4,4-difluorocyclohexyl)ethan-1-ol]",> 1000 nM
8,"COc1ccc2c(n1)C(CC(N)C1CCC(C)(C)CC1)n1cncc1-2 (single isomer, unassigned) [Compound 119c, 1-(4,4-dimethylcyclohexyl)-2-[10-methoxy-4,6,9-triazatricyclo[6.4.0.0^[2,6]]dodeca-1(8),2,4,9,11-pentaen-7-yl]ethan-1-amine]",100 to 1000 nM
9,"OCC1CCC(F)(CCC2c3c(Cl)cccc3-c3cncn32)CC1 (single isomer, unassigned) [Compound 105c, [4-[2-[6-chloro-5H-imidazo[4,3-a]isoindol-5-yl]ethyl]-4-fluorocyclohexyl]methanol]",< 100 nM
10,"OC1(C2CCC(F)(CCC3c4c(F)cccc4-c4cncn43)CC2)CC1 (stereo not shown) [Compound 85b, 1-[4-fluoro-4-(2-[6-fluoro-5H-imidazo[4,3-a]isoindol-5-yl]ethyl)cyclohexyl]cyclopropan-1-ol]",100 to 1000 nM
11,"NC(=O)C1CCC(F)(CCC2c3ccccc3-c3cncn32)CC1 (single isomer, unassigned) [Compound 79a, 4-fluoro-4-[2-[5H-imidazo[4,3-a]isoindol-5-yl]ethyl]cyclohexane-1-carboxamide]",> 1000 nM
12,"COc1ccc2c(n1)C(CC(O)C1CCCCC1)n1cncc1-2 (single isomer, unassigned) [Compound 39a, 1-Cyclohexyl-2-[10-methoxy-4,6,9-triazatricyclo[6.4.0.0^[2,6]]dodeca-1(8),2,4,9,11-pentaen-7-yl]ethan-1-ol]",< 100 nM
13,"OC(CC1c2ncccc2-c2cncn21)C1CCC(C2(O)CC2)CC1 (single isomer, unassigned) [Compound 117c, 1-[4-[1-hydroxy-2-[4,6,9-triazatricyclo[6.4.0.0^[2,6]]dodeca-1(8),2,4,9,11-pentaen-7-yl]ethyl]cyclohexyl]cyclopropan-1-ol]",> 1000 nM
14,"COc1ccc2c(n1)C(CC(N)C1CCC(F)(F)CC1)n1cncc1-2 (single isomer, unassigned) [Compound 120d, 1-(4,4-difluorocyclohexyl)-2-[10-methoxy-4,6,9-triazatricyclo[6.4.0.0^[2,6]]dodeca-1(8),2,4,9,11-pentaen-7-yl]ethan-1-amine]",> 1000 nM
15,"NC(=O)C1CCC(F)(CCC2c3ccccc3-c3cncn32)CC1 (single isomer, unassigned) [Compound 79c, 4-fluoro-4-[2-[5H-imidazo[4,3-a]isoindol-5-yl]ethyl]cyclohexane-1-carboxamide]",< 100 nM
16,"FC(CC1c2ncccc2-c2cncn21)C1CCCCC1 (single isomer, unassigned) [Compound 97d, 7-[2-cyclohexyl-2-fluoroethyl]-4,6,9-triazatricyclo[6.4.0.0^[2,6]]dodeca-1(8),2,4,9,11-pentaene]",> 1000 nM
17,"OC1CCC(F)(CCC2c3cc(F)ncc3-c3cncn32)CC1 (single isomer, unassigned) [Compound 58c, 4-fluoro-4-[2-[10-fluoro-4,6,11-triazatricyclo[6.4.0.0^[2,6]]dodeca-1(8),2,4,9,11-pentaen-7-yl]ethyl]cyclohexan-1-ol]",> 1000 nM
